The source of these data is patent US20240217985A1, “CRYSTALLINE FORM OF AN MDM2-p53 INHIBITOR AND PHARMACEUTICAL COMPOSITIONS” (Boehringer Ingelheim International GmbH, priority 2022, published 2024).

A short description of data set [1]: Aqueous solubility and BCS classification. In kind it is physicochemical.
A short description of data set [2]: Lipophilicity at physiological pH. The class given is physicochemical.

Consider `Cc1c(C(=O)O)ccc2c3n(nc12)[C@@H]1[C@H](C3)N(CC2CC2)[C@@]2(C(=O)Nc3cc(Cl)ccc32)[C@H]1c1cccc(Cl)c1F` [Compound A, (2′S,3′S,3a′S,10a′S)-6-chloro-3′-(3-chloro-2-fluorophenyl)-1′-(cyclopropylmethyl)-6′-methyl-2-oxo-1,2,3′,3a′,10′,10a′-hexahydro-1′H-spiro[indole-3,2′-pyrrolo[2′,3′:4,5]pyrrolo[1,2-b]indazole]-7′-carboxylic acid], for which the aqueous solubility entry in data set [1] (across the physiological pH range) was “low”. Also, the “biopharmaceutical classification system class” value in data set [1] (class II = low solubility, high permeability) is “class II”. The lipophilicity result in data set [2] is recorded as “lipophilic”.
